Earlier results, collected in patent US10328004B2, “Sunscreen cosmetic” (SHISEIDO COMPANY, LTD., priority 2015, dated 2019).

Conditions: UVB wavelength range

maximum absorption wavelength: 312 nm
SMILES: CCCCC(CC)COC(=O)c1ccc(Nc2nc(Nc3ccc(C(=O)OCC(CC)CCCC)cc3)nc(Nc3ccc(C(=O)OCC(CC)CCCC)cc3)n2)cc1 (stereo not shown) [Ethylhexyl triazone]
